According to publication PMC11219871, “Epigenetic-based differentiation therapy for Acute Myeloid Leukemia” (Nature Communications, 2024):

Columns and labels:
Experiment in all cases: Epigenetic panel (BPS Bioscience)
Format in all cases: binding
[1] = biological target: T1, TAF1L (BD1+BD2) (Homo sapiens, UniProt Q8IZX4)
T1 construct: purchased BPS Bioscience; Eurofins (HDAC4, 5, 7-11)
Excerpt: (§1) The selectivity of CM-444 and CM-1758 against other epigenetic targets, including histone demethylase (JMJD2A, JMJD2B, JMJD2C, JMJD2D, JMJD2E, JMJD3, JMJD1A, LSD1, Jarid1A, Jarid1B, Jarid1C, FBXL10, FBXL11, JHDM1D, JMJD1B, PHF8, LSD2 and UTX); histone acetyltransferases (GCN5, P300); histone methyltransferases (G9a, GLP, MLL1, SET7/9, SUV39H1, SUV39H2, PRMT1, PRMT3, PRMT4, PRMT5, PRMT6, PRMT8, PRMT9, NSD1, NSD2, EZH1, EZH2, SETDB1, SETD2, SET8, SUV4-20H1, SMYD2, SMYD3, DOT1L, EZH2 (A677G), EZH2 (A677G), EZH2 (A738T), EZH2 (Y641S), EZH2 (P132S), EZH2 (Y641C), EZH2 (Y641F), EZH2 (Y641H), EZH2 (Y641N)); bromodomains (ATAD2B, ATAD2A, BRD1, BRD9, BPTF/FALZ, CeCR2, BRPF3, BRD3 (BD1 + BD2), BAZ2B, WDR9, TAF1 (BD2), TAF1L (BD2), TAF1L (BD1 + BD2), BRD2 (BD1), BRD2 (BD2), BRD2 (BD1 + BD2), BRD3 (BD1), BRD3 (BD2), BRD4 (BD1), BRD4 (BD2), BRD4 (BD1 + BD2), BRDT (BD1), BRDT (BD1 + BD2), CREBBP, SMARCA2A, SMARCA4/BRG1); DNA methyltranferases (DNMT1, DNMT3A/3L and DNMT3B/3L), and sirtuin histone deacetylases (SIRT1, SIRT2, SIRT3, SIRT5 and SIRT6), were determined by BPS Bioscience (http://www.bpsbioscience.com/index.ph). Binding experiments were performed in duplicate at a concentration of 10 μM.

[2] = biological target: T2, BRD4 (BD2) (Homo sapiens, UniProt O60885)
T2 construct: purchased BPS Bioscience; Eurofins (HDAC4, 5, 7-11)
Excerpt: as §1

[3] = biological target: T3, SMARCA4/BRG1 (Homo sapiens, UniProt P51532)
T3 construct: purchased BPS Bioscience; Eurofins (HDAC4, 5, 7-11)
Excerpt: as §1

[4] = biological target: T4, BRD1 (Homo sapiens, UniProt O95696)
T4 construct: purchased BPS Bioscience; Eurofins (HDAC4, 5, 7-11)
Excerpt: as §1

[5] = biological target: T5, BRD3 (BD1) (Homo sapiens, UniProt Q15059)
T5 construct: BRD3 (BD1); purchased BPS Bioscience (contracted assay service)
T5 sequence (Q15059 34-140 limits assumed): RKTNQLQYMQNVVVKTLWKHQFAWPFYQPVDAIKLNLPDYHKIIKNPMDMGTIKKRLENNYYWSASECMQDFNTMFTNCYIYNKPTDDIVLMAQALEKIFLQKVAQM
Excerpt: as §1

[6] = biological target: T6, CeCR2 (Homo sapiens, UniProt Q9BXF3)
T6 construct: purchased BPS Bioscience (contracted assay service)
T6 sequence (Q9BXF3 whole entry): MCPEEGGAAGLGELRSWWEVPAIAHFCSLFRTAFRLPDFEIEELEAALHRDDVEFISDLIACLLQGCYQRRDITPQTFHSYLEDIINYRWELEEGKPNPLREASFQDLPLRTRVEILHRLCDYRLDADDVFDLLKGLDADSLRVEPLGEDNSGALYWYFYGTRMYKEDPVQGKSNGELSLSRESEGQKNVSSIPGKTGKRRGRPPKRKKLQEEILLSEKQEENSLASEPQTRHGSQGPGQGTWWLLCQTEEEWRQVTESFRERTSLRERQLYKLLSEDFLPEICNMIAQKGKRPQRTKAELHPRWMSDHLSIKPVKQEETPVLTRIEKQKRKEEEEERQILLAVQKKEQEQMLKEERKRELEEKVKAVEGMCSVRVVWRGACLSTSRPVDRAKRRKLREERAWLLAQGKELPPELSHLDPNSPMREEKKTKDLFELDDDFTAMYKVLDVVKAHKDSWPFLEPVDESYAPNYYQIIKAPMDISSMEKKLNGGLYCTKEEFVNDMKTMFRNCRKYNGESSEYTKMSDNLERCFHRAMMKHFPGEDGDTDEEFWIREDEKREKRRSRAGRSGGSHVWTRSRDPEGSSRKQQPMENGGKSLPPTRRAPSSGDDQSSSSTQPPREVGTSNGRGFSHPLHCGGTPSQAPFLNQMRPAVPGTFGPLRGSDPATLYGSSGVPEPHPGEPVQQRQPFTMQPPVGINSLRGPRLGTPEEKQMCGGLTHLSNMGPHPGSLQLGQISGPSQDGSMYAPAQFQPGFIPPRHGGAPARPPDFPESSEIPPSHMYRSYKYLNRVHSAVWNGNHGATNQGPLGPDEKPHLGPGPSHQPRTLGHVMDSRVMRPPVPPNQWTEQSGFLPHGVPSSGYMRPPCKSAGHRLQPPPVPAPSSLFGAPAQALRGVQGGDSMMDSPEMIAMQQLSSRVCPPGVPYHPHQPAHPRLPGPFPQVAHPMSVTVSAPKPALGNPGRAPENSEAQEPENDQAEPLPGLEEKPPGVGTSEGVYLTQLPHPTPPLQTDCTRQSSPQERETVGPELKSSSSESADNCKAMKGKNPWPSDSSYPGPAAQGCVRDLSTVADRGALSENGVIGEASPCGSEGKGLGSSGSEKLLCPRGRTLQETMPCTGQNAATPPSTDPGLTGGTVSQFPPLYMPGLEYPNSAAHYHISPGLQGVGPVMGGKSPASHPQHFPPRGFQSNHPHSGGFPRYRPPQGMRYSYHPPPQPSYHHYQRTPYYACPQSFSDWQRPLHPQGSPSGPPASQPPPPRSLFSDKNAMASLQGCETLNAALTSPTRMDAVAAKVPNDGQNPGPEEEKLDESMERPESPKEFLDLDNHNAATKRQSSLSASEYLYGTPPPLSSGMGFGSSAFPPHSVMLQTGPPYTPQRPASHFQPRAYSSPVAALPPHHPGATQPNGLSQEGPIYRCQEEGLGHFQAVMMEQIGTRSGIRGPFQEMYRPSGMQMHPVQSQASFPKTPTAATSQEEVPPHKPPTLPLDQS
Excerpt: as §1

[7] = biological target: T7, BRDT (BD1+BD2) (Homo sapiens, UniProt Q58F21)
T7 construct: purchased BPS Bioscience; Eurofins (HDAC4, 5, 7-11)
Excerpt: as §1

[8] = biological target: T8, BRD2 (BD1+BD2) (Homo sapiens, UniProt P25440)
T8 construct: purchased BPS Bioscience; Eurofins (HDAC4, 5, 7-11)
T8 sequence (P25440 65-459 limits assumed): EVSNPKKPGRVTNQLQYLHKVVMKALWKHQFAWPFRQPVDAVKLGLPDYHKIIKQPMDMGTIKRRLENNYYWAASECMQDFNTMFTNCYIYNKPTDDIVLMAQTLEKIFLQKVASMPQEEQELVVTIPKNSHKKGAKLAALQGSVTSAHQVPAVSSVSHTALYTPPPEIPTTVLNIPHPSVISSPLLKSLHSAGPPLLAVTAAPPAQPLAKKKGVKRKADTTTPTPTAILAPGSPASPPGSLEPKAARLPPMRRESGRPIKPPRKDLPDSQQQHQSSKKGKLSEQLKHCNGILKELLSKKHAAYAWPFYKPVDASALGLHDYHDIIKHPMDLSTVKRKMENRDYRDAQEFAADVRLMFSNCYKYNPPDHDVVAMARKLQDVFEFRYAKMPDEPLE
Excerpt: as §1

[9] = biological target: T9, SMARCA2A (Homo sapiens, UniProt P51531)
T9 construct: purchased BPS Bioscience; Eurofins (HDAC4, 5, 7-11)
Excerpt: as §1

[10] = biological target: T10, BRD4 (BD1+BD2) (Homo sapiens, UniProt O60885)
T10 construct: purchased BPS Bioscience; Eurofins (HDAC4, 5, 7-11)
Excerpt: as §1

[11] = biological target: T11, BAZ2B (Homo sapiens, UniProt Q9UIF8)
T11 construct: purchased BPS Bioscience; Eurofins (HDAC4, 5, 7-11)
Excerpt: as §1

[12] = biological target: T12, BRD9 (Homo sapiens, UniProt Q9H8M2)
T12 construct: purchased BPS Bioscience (contracted assay service)
T12 sequence (Q9H8M2 1-597): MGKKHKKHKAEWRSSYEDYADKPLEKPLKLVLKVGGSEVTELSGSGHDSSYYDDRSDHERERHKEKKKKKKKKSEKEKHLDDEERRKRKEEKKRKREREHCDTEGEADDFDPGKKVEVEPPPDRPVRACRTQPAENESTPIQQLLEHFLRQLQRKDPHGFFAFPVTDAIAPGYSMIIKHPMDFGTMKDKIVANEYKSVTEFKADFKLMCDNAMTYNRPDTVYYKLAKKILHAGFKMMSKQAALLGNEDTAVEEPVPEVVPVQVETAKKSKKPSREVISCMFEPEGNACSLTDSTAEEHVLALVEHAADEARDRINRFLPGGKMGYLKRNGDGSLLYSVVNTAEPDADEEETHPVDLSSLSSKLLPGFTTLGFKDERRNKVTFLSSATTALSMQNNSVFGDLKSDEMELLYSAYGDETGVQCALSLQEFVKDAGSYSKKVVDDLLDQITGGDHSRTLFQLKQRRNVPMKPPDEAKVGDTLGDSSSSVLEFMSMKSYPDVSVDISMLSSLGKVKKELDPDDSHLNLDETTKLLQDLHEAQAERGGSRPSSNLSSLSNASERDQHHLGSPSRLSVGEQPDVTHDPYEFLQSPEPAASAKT
Excerpt: as §1

[13] = biological target: T13, BRD3 (BD2) (Homo sapiens, UniProt Q15059)
T13 construct: purchased BPS Bioscience; Eurofins (HDAC4, 5, 7-11)
T13 sequence (Q15059 306-419 limits assumed): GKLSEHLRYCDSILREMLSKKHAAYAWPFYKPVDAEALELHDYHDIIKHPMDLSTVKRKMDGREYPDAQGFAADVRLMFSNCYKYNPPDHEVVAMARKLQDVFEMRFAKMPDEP
Excerpt: as §1

[14] = biological target: T14, WDR9 (Homo sapiens, UniProt Q9NSI6)
T14 construct: purchased BPS Bioscience (contracted assay service)
T14 sequence (Q9NSI6 whole entry): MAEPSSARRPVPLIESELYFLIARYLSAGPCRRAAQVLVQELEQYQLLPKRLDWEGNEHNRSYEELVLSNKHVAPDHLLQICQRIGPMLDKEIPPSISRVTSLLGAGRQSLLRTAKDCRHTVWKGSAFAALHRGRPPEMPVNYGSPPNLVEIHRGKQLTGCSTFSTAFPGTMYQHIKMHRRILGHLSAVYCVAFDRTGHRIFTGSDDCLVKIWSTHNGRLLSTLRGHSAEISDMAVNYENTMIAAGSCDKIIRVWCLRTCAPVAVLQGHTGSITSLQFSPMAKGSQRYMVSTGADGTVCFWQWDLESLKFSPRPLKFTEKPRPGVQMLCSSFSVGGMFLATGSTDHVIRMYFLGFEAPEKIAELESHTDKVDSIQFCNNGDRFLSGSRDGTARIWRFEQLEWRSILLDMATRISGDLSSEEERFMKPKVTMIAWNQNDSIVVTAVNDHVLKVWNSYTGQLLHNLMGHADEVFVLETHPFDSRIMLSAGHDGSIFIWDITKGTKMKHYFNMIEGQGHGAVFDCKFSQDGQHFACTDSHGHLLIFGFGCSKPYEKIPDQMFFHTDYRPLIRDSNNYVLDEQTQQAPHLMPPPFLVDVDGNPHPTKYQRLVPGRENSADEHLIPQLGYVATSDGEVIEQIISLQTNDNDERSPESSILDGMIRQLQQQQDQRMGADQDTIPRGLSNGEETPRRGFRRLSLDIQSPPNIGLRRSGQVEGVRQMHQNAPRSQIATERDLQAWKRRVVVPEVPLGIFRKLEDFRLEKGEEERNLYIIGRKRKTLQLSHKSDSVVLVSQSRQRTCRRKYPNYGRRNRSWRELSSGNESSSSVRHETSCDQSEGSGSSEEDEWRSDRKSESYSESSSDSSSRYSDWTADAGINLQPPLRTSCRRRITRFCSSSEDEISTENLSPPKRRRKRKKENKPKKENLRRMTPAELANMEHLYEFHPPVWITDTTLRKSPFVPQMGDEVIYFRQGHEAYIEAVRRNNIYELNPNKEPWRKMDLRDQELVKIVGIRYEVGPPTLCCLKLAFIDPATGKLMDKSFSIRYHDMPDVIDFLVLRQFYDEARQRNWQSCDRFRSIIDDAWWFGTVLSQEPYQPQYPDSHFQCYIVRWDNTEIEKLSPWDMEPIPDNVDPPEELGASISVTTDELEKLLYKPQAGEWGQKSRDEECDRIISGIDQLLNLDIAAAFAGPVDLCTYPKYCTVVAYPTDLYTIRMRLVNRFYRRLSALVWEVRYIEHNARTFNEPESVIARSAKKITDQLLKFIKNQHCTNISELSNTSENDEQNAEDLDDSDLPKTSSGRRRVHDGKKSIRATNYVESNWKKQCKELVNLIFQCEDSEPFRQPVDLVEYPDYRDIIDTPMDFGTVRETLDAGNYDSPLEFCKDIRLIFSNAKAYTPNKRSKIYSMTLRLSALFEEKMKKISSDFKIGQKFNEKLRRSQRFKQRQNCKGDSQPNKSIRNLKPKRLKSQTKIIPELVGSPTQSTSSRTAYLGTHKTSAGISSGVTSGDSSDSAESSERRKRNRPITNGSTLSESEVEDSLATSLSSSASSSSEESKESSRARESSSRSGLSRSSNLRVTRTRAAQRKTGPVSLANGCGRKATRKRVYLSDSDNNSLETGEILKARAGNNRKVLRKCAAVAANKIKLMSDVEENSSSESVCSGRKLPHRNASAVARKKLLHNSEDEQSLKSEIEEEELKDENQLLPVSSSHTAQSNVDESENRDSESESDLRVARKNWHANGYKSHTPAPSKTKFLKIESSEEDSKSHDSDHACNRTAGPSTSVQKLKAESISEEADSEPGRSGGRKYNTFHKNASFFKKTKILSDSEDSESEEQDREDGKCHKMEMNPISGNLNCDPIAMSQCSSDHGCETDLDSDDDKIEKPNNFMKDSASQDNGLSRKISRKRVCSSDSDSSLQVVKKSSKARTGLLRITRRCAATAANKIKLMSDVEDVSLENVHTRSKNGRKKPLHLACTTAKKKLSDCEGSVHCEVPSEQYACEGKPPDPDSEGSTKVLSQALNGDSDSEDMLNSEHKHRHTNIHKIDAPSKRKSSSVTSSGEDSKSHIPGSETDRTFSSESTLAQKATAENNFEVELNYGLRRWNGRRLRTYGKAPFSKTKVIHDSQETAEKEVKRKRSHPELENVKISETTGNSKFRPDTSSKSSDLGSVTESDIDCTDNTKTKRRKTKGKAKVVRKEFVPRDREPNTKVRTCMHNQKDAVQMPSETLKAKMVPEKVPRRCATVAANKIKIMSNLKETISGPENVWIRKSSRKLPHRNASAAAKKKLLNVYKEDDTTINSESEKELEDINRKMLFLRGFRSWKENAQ
Excerpt: as §1

[15] = biological target: T15, BRD2 (BD2) (Homo sapiens, UniProt P25440)
T15 construct: purchased BPS Bioscience; Eurofins (HDAC4, 5, 7-11)
T15 sequence (P25440 339-459 limits assumed): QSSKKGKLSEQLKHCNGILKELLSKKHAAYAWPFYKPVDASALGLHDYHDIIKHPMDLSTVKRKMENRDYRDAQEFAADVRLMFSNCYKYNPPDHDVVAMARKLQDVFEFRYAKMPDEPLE
Excerpt: as §1

[16] = biological target: T16, ATAD2A (Homo sapiens, UniProt Q6PL18)
T16 construct: purchased BPS Bioscience; Eurofins (HDAC4, 5, 7-11)
Excerpt: as §1

T1 sequence (Q8IZX4 1395-1654): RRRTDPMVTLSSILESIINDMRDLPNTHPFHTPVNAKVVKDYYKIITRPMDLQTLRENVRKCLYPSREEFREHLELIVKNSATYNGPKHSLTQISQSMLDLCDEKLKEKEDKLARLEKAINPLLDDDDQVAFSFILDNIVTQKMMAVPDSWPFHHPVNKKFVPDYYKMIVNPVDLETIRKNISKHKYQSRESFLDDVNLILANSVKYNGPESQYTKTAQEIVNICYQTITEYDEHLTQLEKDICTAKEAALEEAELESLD

## COc1cc2nc(-c3ccc(C)o3)cc(NCC3CCN(c4ncc(C(=O)NO)cn4)CC3)c2cc1OC [CM-444, 2-[4-[[[6,7-dimethoxy-2-(5-methyl-2-furyl)-4-quinolyl]amino]methyl]-1-piperidyl]pyrimidine-5-carbohydroxamic acid]
[1]
  inhibition at 10 µM: 0%
[2]
  inhibition at 10 µM: 0%
[3]
  inhibition at 10 µM: 0%
[4]
  inhibition at 10 µM: 0%
[5]
  inhibition at 10 µM: 20%
[6]
  inhibition at 10 µM: 0%
[7]
  inhibition at 10 µM: 38%
[8]
  inhibition at 10 µM: 21%
[9]
  inhibition at 10 µM: 0%
[10]
  inhibition at 10 µM: 41%
[11]
  inhibition at 10 µM: 0%
[12]
  IC50: 13 µM
  inhibition at 10 µM: 69%
[13]
  inhibition at 10 µM: 0%
[14]
  IC50: > 50 µM
  inhibition at 10 µM: 51%
[15]
  inhibition at 10 µM: 0%
[16]
  inhibition at 10 µM: 0%

## COc1cc2nc(-c3cc(C)oc3C)cc(NCC3CCN(c4ncc(C(=O)NO)cn4)CC3)c2cc1OC [CM-1758, 2-[4-[[[2-(2,5-dimethyl-3-furyl)-6,7-dimethoxy-4-quinolyl]amino]methyl] -1-piperidyl]pyrimidine-5-carbohydroxamic acid]
[1]
  inhibition at 10 µM: 0%
[2]
  inhibition at 10 µM: 0%
[3]
  inhibition at 10 µM: 18%
[4]
  inhibition at 10 µM: 3%
[5]
  IC50: > 50 µM
  inhibition at 10 µM: 60%
[6]
  IC50: 0.93 µM
  inhibition at 10 µM: 72%
[7]
  inhibition at 10 µM: 17%
[8]
  inhibition at 10 µM: 29%
[9]
  inhibition at 10 µM: 0%
[10]
  inhibition at 10 µM: 50%
[11]
  inhibition at 10 µM: 0%
[12]
  IC50: 36 µM
  inhibition at 10 µM: 75%
[13]
  inhibition at 10 µM: 0%
[14]
  inhibition at 10 µM: 35%
[15]
  inhibition at 10 µM: 34%
[16]
  inhibition at 10 µM: 0%
